Reference: patent US7968551B2, “Chromenoneindoles” (Merck Patent GmbH, priority 2003, dated 2011)

How the values were obtained:
cortical serotonin level = assay: Microdialysis: effect on the cortical serotonin level in vivo; conditions: rats
From the text: In order to determine the effect of the substances on the cortical serotonin level in rats in vivo, a microdialysis probe with a semipermeable membrane was implanted into the brain tissue and perfused with a solution matched to the composition of cerebrospinal fluid (see in this respect, for example, Di Chiara, Trends Pharmacol. Sci. 11, 117-121, 1990). The molecules of the extracellular space, such as, for example, also of the neurotransmitter serotonin, diffuse via this membrane into the interior of the probe in accordance with their concentration gradient. From there, they are transported with the perfusion stream to a collecting vessel. The serotonin concentration in the dialysate obtained in this way is subsequently determined by means of high-sensitivity analytical methods. The fractions obtained at regular intervals (of, for example, 15-20 minutes) thus reflect the concentration changes of the transmitter in question in the brain tissue over a period of several hours. The concentration of the serotonin in the dialysate is firstly measured without any influence. The substance to be tested is then applied, and the serotonin concentrations before and after administration of the substances are compared.

[1] = Absolute bioavailability from AUC after po and iv administration; type: in vivo; conditions: rat; Wistar rats, male; iv 0.2 mg/kg, po 0.5 mg/kg; plasma by LC/MS/MS
Procedure: The bioavailability was determined by a standard method described in many textbooks of pharmacokinetics with the aid of the AUC (area under the concentration/time curves) measured after po and iv administration. For the determination of the absolute bioavailability, the plasma concentration curve of the said substances was determined after intravenous (iv) and oral (po) administration to Wistar rats (male; N=3 animals/administration). The following experiment design was selected: • Administration method: iv and po • Dose: iv−0.2 mg/kg; po−0.5 mg/kg • Time of blood sampling for the determination of the plasma concentrations: • iv: 0.1, 0.5, 1, 2, 4, 6 and 24 h • po: 0.25, 0.5, 1, 2, 4, 6 and 24 h
The plasma concentrations were determined with the aid of LC/MS/MS.
The plasma concentrations were used to calculate the AUC (area under the concentration/time curve) in accordance with the so-called trapezium formula.
The bioavailability is obtained from the AUC in accordance with the following formula: Bioavailability [%]=100×(AUC po)/AUC iv)[…]

## N#Cc1ccc2[nH]cc(CCCCN3CCN(c4ccc5oc(C(N)=O)cc5c4)CC3)c2c1 [EMD 68843, 5-{4-[4-(5-cyano-3-inolyl)butyl]-1-piperanzinyl}benzofuran-2-carboxamide, reference compound]
Cortical serotonin level; 1 mg/kg i.p.
  serotonin level in the brain (5-HT concentration in the dialysate), FIG. 1: comparable increase in the concentration of serotonin in the brain to EMD 135894

## N#Cc1ccc2[nH]cc(CCCCN3CCN(c4ccc5oc(=O)ccc5c4)CC3)c2c1 [EMD 135894, 3-(4-(4-(2-oxo-2H-1-benzopyran-6-yl)-1-piperazinyl)butyl)indole-5-carbonitrile, reference compound]
[1]
  bioavailability: 10%

## N#Cc1ccc2[nH]cc(CCCCN3CCN(c4ccc5oc(=O)c(N)cc5c4)CC3)c2c1 [EMD 480246, 3-{4-[4-(3-Amino-2-oxo-2H-chromen-6-yl)piperazin-1-yl]butyl}-1H-indole-5-carbonitrile]
Cortical serotonin level; 0.3 mg/kg i.p.
  serotonin level in the brain (5-HT concentration in the dialysate), FIG. 2: even higher serotonin level than EMD 391987

## CCOC(=O)Nc1cc2cc(N3CCN(CCCCc4c[nH]c5ccc(C#N)cc45)CC3)ccc2oc1=O [EMD 480247, Ethyl(6-{4-[4-(5-cyano-1H-indol-3-yl)butyl]piperazin-1-yl}-2-oxo-2H-chromen-3-yl)carbamate]
[1]
  bioavailability: ~20%
Cortical serotonin level; 0.3 or 1.0 mg/kg i.p. compared with vilazodone 1 mg/kg
  serotonin level in the brain (5-HT concentration in the dialysate), FIG. 3: clearly superior action to vilazodone
